Strand notation (5' to 3'): a small letter for the sugar, then the base; units joined by * are phosphorothioate-linked, units joined directly phosphodiester-linked; [ ] holds rarer units or linkages, { } end groups; capitals alone tell only the bases. e = 2'-O-(2-methoxyethyl) (MOE); [5mC] = 5-methylcytosine; d = 2'-deoxy (DNA)
These substances were tested on human Factor 7 mRNA (assay: Antisense inhibition of human Factor 7 mRNA in HepB3 cells, 50 nM antisense oligonucleotide, lipofectin). Conditions: Table 1, 50 nM, lipofectin, approximately 24 hours, relative to untreated control cells.
Type: cell-based
Experimental: Antisense oligonucleotides targeted to a Factor 7 nucleic acid were tested for their effects on Factor 7 mRNA in vitro. Cultured HepB3 cells at a density of 4,000 cells per well were transfected using lipofectin reagent with 50 nM antisense oligonucleotide. After a treatment period of approximately 24 hours, RNA was isolated from the cells and Factor 7 mRNA levels were measured by real-time RT-PCR, as described herein. Factor 7 mRNA levels were adjusted according to total RNA content as measured by RIBOGREEN®. Results are presented as percent inhibition of Factor 7, relative to untreated control cells.
(§1) Antisense oligonucleotides targeted to a Factor 7 nucleic acid were designed and tested for their effects on Factor 7 mRNA in vitro. Certain antisense oligonucleotides from Table 3 were also retested for their effects on Factor 7 mRNA in vitro. Cultured HepB3 cells at a density of 4,000 cells per well were transfected using lipofectin reagent with 50 nM antisense oligonucleotide. After a treatment period of approximately 24 hours, RNA was isolated from the cells and Factor 7 mRNA levels were measured by real-time RT-PCR, as described herein. Human Factor 7 primer probe set RTS 2927 was used to measure mRNA levels. Factor 7 mRNA levels were adjusted according to total RNA content as measured by RIBOGREEN®. Results are presented as percent inhibition of Factor 7, relative to untreated control.
as §1, with “tested” for “tested for their effects on Factor 7 mRNA in vitro. Certain antisense oligonucleotides from Table 3 were also retested”
These gapmers were designed by creating gapmers shifted slightly upstream and downstream (i.e. “microwalk”) of the original gapmers from Table 7. Gapmers were also created with various motifs, e.g. 5-10-5 MOE, 3-14-3 MOE, and 2-13-5 MOE. These gapmers were tested in vitro. Cultured HepB3 cells at a density of 4,000 cells per well were transfected using lipofectin reagent with 50 nM antisense oligonucleotide. After a treatment period of approximately 24 hours, RNA was isolated from the cells and Factor 7 mRNA levels were measured by real-time RT-PCR. Factor 7 mRNA levels were adjusted according to total RNA content, as measured by RIBOGREEN®. Results are presented as percent inhibition of Factor 7, relative to untreated control cells.
For “407634 (antisense eG*eT*eG*eA*e[5mC]*dT*dG*d[5mC]*dT*dG*d[5mC]*dA*dG*dG*d[5mC]*eA*eG*eT*e[5mC]*e[5mC]) [compound 407634]”, the “% Inhibition” value was 24%. “407635 (antisense eT*eG*eG*e[5mC]*e[5mC]*d[5mC]*d[5mC]*dA*dG*d[5mC]*dT*dG*dA*d[5mC]*dG*eA*eT*eG*e[5mC]*e[5mC]) [compound 407635]” was tested, and the “% Inhibition” value was 64%. In the case of “407636 (antisense eG*e[5mC]*eA*eG*e[5mC]*d[5mC]*d[5mC]*dT*dG*dG*d[5mC]*d[5mC]*d[5mC]*d[5mC]*dA*eG*e[5mC]*eT*eG*eA) [compound 407636]”, the “% Inhibition” value is reported as 75%. With “407637 (antisense eG*eT*eA*e[5mC]*eT*dG*dG*dG*dA*dG*dA*d[5mC]*d[5mC]*d[5mC]*dT*eG*eG*eT*eG*eT) [compound 407637]” the “% Inhibition” value was 71%. In the case of “407638 (antisense eG*e[5mC]*e[5mC]*eA*e[5mC]*dT*d[5mC]*dG*dA*dT*dG*dT*dA*d[5mC]*dT*eG*eG*eG*eA*eG) [compound 407638]”, the “% Inhibition” value is reported as 0%. For “407639 (antisense eT*eT*eT*eG*e[5mC]*dA*dG*d[5mC]*d[5mC]*dA*d[5mC]*dT*d[5mC]*dG*dA*eT*eG*eT*eA*e[5mC]) [compound 407639]”, the “% Inhibition” value was 76%. In the case of “407640 (antisense eG*e[5mC]*eA*eT*eG*dA*dG*d[5mC]*dT*dT*dT*dT*dG*d[5mC]*dA*eG*e[5mC]*e[5mC]*eA*e[5mC]) [compound 407640]”, the “% Inhibition” value is reported as 79%. For “407642 (antisense e[5mC]*eA*eG*e[5mC]*eA*dG*d[5mC]*d[5mC]*dT*dG*dA*dG*dG*d[5mC]*d[5mC]*eA*eG*e[5mC]*eA*eG) [compound 407642]”, the “% Inhibition” value was 78%. For “407644 (antisense eG*eA*eG*eG*eA*d[5mC]*dA*dG*d[5mC]*dA*d[5mC]*dA*d[5mC]*dA*dT*eG*eG*eA*eG*eT) [compound 407644]”, the “% Inhibition” value was 66%. For “407645 (antisense eG*eA*eG*eA*eG*d[5mC]*dT*dA*dA*dA*d[5mC]*dA*dA*d[5mC]*d[5mC]*eG*e[5mC]*e[5mC]*eT*eT) [compound 407645]”, the “% Inhibition” value was 65%. In the case of “407646 (antisense eG*eG*eT*eG*eA*dT*dG*d[5mC]*dT*dT*d[5mC]*dT*dG*dA*dA*eT*eT*eG*eT*e[5mC]) [compound 407646]”, the “% Inhibition” value is reported as 81%. In the case of “407647 (antisense eG*e[5mC]*eA*eG*e[5mC]*d[5mC]*dG*dT*dT*dT*dA*dT*dT*dG*dT*eG*eA*eA*eG*e[5mC]) [compound 407647]”, the “% Inhibition” value is reported as 83%. For “407649 (antisense eG*eA*eG*eG*eG*dT*dT*d[5mC]*dA*dT*dT*dT*d[5mC]*dA*dG*eT*eG*eA*eT*eG) [compound 407649]”, the “% Inhibition” value was 24%. For “407650 (antisense e[5mC]*e[5mC]*eA*eT*eG*dT*dG*dA*dG*dG*dG*dT*dT*d[5mC]*dA*eT*eT*eT*e[5mC]*eA) [compound 407650]”, the “% Inhibition” value was 39%. With “407651 (antisense eA*eG*e[5mC]*e[5mC]*eT*d[5mC]*dA*dA*dA*d[5mC]*dA*dT*d[5mC]*dT*dA*eT*e[5mC]*eA*eA*eA) [compound 407651]” the “% Inhibition” value was 32%. For “407652 (antisense eT*eG*eG*eG*eA*dG*d[5mC]*dT*dA*d[5mC]*dA*dG*d[5mC]*d[5mC]*dT*e[5mC]*eA*eA*eA*e[5mC]) [compound 407652]”, the “% Inhibition” value was 30%. With “407653 (antisense eA*eA*eT*eA*eT*d[5mC]*dA*dT*dT*dG*dA*d[5mC]*dA*dA*dG*eG*eG*e[5mC]*eT*eG) [compound 407653]” the “% Inhibition” value was 21%. In the case of “407654 (antisense e[5mC]*e[5mC]*eA*e[5mC]*eT*dG*d[5mC]*dA*dG*d[5mC]*d[5mC]*dA*dG*dG*dG*e[5mC]*e[5mC]*eT*eG*eG) [compound 407654]”, the “% Inhibition” value is reported as 34%. In the case of “407655 (antisense eA*eG*eA*eG*eT*dG*d[5mC]*dA*dG*d[5mC]*dT*dT*dG*d[5mC]*d[5mC]*eA*eG*eG*eT*e[5mC]) [compound 407655]”, the “% Inhibition” value is reported as 28%. In the case of “407656 (antisense e[5mC]*eA*eG*e[5mC]*eA*dA*dG*dA*dG*dT*dG*d[5mC]*dA*dG*d[5mC]*eT*eT*eG*e[5mC]*e[5mC]) [compound 407656]”, the “% Inhibition” value is reported as 43%. For “407657 (antisense eG*eG*eG*eA*e[5mC]*dT*d[5mC]*dA*dG*d[5mC]*dA*dA*dG*dA*dG*eT*eG*e[5mC]*eA*eG) [compound 407657]”, the “% Inhibition” value was 26%. With “407658 (antisense eG*e[5mC]*eT*eT*eG*d[5mC]*d[5mC]*dG*dG*dA*dG*dT*d[5mC]*dT*dG*eA*eG*eT*eG*eG) [compound 407658]” the “% Inhibition” value was 16%. In the case of “407659 (antisense eG*eA*eT*eG*eG*d[5mC]*dA*dT*d[5mC]*dG*dA*dG*dT*d[5mC]*d[5mC]*eA*e[5mC]*eT*e[5mC]*eT) [compound 407659]”, the “% Inhibition” value is reported as 55%. With “407660 (antisense eG*e[5mC]*eT*e[5mC]*eT*dG*dA*dA*dG*dT*dA*dG*dA*dT*dG*eA*eT*eG*e[5mC]*e[5mC]) [compound 407660]” the “% Inhibition” value was 16%. “407661 (antisense eT*eT*eT*eA*e[5mC]*dA*dA*dG*dA*dG*d[5mC]*dA*dG*dG*dG*eT*eG*e[5mC]*e[5mC]*eT) [compound 407661]” was tested, and the “% Inhibition” value was 47%. For “407663 (antisense eT*eT*eG*e[5mC]*eA*dG*dG*d[5mC]*dA*dG*dG*dA*d[5mC]*dT*dG*eG*eT*eG*eG*eT) [compound 407663]”, the “% Inhibition” value was 44%. In the case of “407664 (antisense e[5mC]*eA*eG*eG*eG*d[5mC]*dG*dA*dG*dG*d[5mC]*dA*dA*d[5mC]*d[5mC]*e[5mC]*e[5mC]*eG*eT*eG) [compound 407664]”, the “% Inhibition” value is reported as 70%. In the case of “407665 (antisense eG*eT*eT*eA*e[5mC]*dG*dA*dA*dG*dA*d[5mC]*dT*dG*dG*dG*eA*eA*eA*eT*eG) [compound 407665]”, the “% Inhibition” value is reported as 29%. “407666 (antisense eT*e[5mC]*e[5mC]*e[5mC]*e[5mC]*dA*dG*dG*dA*d[5mC]*dA*dT*d[5mC]*dT*dG*eG*eA*eA*e[5mC]*eT) [compound 407666]” was tested, and the “% Inhibition” value was 52%. “407667 (antisense eG*eT*eG*eG*e[5mC]*d[5mC]*dA*dT*dG*d[5mC]*d[5mC]*d[5mC]*dT*dG*dG*eG*eT*e[5mC]*eA*eG) [compound 407667]” was tested, and the “% Inhibition” value was 71%. In the case of “407668 (antisense eG*eA*eA*eG*e[5mC]*d[5mC]*dT*dT*dA*d[5mC]*d[5mC]*dT*dG*d[5mC]*d[5mC]*eA*eT*eG*eG*eA) [compound 407668]”, the “% Inhibition” value is reported as 54%. With “407669 (antisense eT*eA*eG*eA*e[5mC]*d[5mC]*d[5mC]*dT*d[5mC]*dA*dG*dT*dG*dA*dG*eT*eG*eT*e[5mC]*eG) [compound 407669]” the “% Inhibition” value was 57%. With “407886 (antisense eG*e[5mC]*eA*eG*eA*dG*dG*dA*dG*d[5mC]*d[5mC]*dT*dG*dA*dG*eG*eG*e[5mC]*e[5mC]*eT) [compound 407886]” the “% Inhibition” value was 72%. In the case of “407887 (antisense e[5mC]*e[5mC]*eA*eG*eG*d[5mC]*dA*dG*d[5mC]*d[5mC]*d[5mC]*dT*dG*dA*dA*eG*e[5mC]*e[5mC]*e[5mC]*eA) [compound 407887]”, the “% Inhibition” value is reported as 78%. In the case of “407888 (antisense e[5mC]*eG*eA*eA*eG*dA*d[5mC]*dT*dG*d[5mC]*dA*dG*d[5mC]*d[5mC]*dA*eG*eG*e[5mC]*eA*eG) [compound 407888]”, the “% Inhibition” value is reported as 34%. With “407889 (antisense eT*e[5mC]*e[5mC]*eT*eG*dG*dG*dT*dT*dA*d[5mC]*dG*dA*dA*dG*eA*e[5mC]*eT*eG*e[5mC]) [compound 407889]” the “% Inhibition” value was 54%. In the case of “407890 (antisense e[5mC]*eA*eG*eG*eG*dA*dG*d[5mC]*d[5mC]*d[5mC]*dG*dG*d[5mC]*d[5mC]*dG*e[5mC]*eA*eG*e[5mC]*eT) [compound 407890]”, the “% Inhibition” value is reported as 60%. With “407891 (antisense e[5mC]*eA*eT*eG*eG*dA*d[5mC]*dT*dT*dG*dA*dG*dG*d[5mC]*dA*e[5mC]*eA*e[5mC]*eT*eG) [compound 407891]” the “% Inhibition” value was 66%. With “407892 (antisense e[5mC]*e[5mC]*e[5mC]*e[5mC]*eA*dT*dT*d[5mC]*dT*dG*dG*d[5mC]*dA*dT*dG*eG*eA*e[5mC]*eT*eT) [compound 407892]” the “% Inhibition” value was 68%. “407893 (antisense eT*e[5mC]*eG*eA*eA*dG*dG*d[5mC]*dA*dG*dG*dG*dA*dG*dG*e[5mC]*eA*eG*eA*eA) [compound 407893]” was tested, and the “% Inhibition” value was 33%.

Same assay, conditions: oligonucleotides targeted to nucleobases 14707 to 14732 of SEQ ID NO: 1 (Table 11)
“407642 (antisense e[5mC]*eA*eG*e[5mC]*eA*dG*d[5mC]*d[5mC]*dT*dG*dA*dG*dG*d[5mC]*d[5mC]*eA*eG*e[5mC]*eA*eG) [compound 407642]” was tested, and the “% Inhibition (human Factor 7 mRNA levels)” value was 63%.

From patent publication US9029337B2, “Modulation of factor 7 expression” (Isis Pharmaceuticals, Inc., priority 2007, dated 2015)
